Laboratory results from patent publication US11535630B2, “Apelin receptor (APJ) agonists and uses thereof” (Research Triangle Institute, priority 2015, dated 2022).
Read-outs that look alike come from different tables or passages of the source.

Experiments:
[1] = biological target: T1, apelin receptor (APJ) (Homo sapiens, UniProt P35414); test: In vitro apelin agonist activity (methods of Giddings et al., Apelin-13 as positive control); assay type: cell-based; conditions: in vitro apelin agonist activity, methods of Giddings et al., Apelin-13 as positive control
T1 sequence (P35414 1-380): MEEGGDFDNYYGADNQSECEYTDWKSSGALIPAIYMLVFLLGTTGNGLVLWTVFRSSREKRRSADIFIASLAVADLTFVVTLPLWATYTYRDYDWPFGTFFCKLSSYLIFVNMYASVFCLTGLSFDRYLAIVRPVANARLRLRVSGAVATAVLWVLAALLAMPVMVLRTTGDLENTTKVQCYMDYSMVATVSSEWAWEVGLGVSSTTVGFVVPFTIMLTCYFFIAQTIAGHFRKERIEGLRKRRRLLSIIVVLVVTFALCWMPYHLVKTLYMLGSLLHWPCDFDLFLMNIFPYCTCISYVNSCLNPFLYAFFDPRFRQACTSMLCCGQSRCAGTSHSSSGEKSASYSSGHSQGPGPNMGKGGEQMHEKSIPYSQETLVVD
Description: Characterization of the Apelin Agonist Activity of the Compounds
1:39-47, the contents of which are hereby incorporated by reference in its entirety. Using the methods described in Giddings et al. and Apelin-13 as a positive control.

[2] = test system: male Sprague-Dawley rats; test: In vivo blood pressure lowering in conscious telemetered rats, oral gavage; parameters: species or system rat; conditions: for Diastolic blood pressure, 2-5 h mean change from baseline / MAP, 2-5 h mean change from baseline / Systolic blood pressure, 2-5 h mean change from baseline: rat; for Effect on blood pressure (in words): oral gavage 7.5, 15 or 30 mg/kg, male Sprague-Dawley rats
Protocol: In Vivo Blood Pressure Lowering Activity of the Compounds
Select compounds were evaluated for their effects upon oral administration on hemodynamic changes, including blood pressure reduction, in conscious, telemetered male Sprague-Dawley rats. Apelin peptides are known to lower blood pressure, e.g., Tatemoto, K., et.al. Regul. Pept. 2001, 99, 87-92.
Animals were approximately 7-9 weeks of age and weighed between 247 g to 263 g just prior to surgery. Dose levels administered were 7.5, 15 or 30 mg/kg, dose volumes were 10 mL/kg, and dose route of administration was oral gavage. Animals were assigned to a crossover experimental treatment schedule as shown below.
Collected data included systolic, diastolic, and mean arterial blood pressure (MAP). Data collection time points were for pre-dose baseline approximately 48 h (prior to treatment 1) or approximately 24 h (prior to treatment 2-4) for 10 sec every 2 min. Data collection post-dose was collected through approximately 24 h (data collected for 10 sec every 2 min) per treatment. Resulting data is presented below as the 2-5 h mean change from baseline in mmHg.

Row | EC50 ([1]; read-out: EC50 (nM) Ave) | Compound | also measured
1 | 25 nM | O=C(N[C@@H](CCN1CCCC(F)(F)C1)Cc1nnn[nH]1)c1cc(-c2ccccc2C(F)(F)F)n(C2CCCC2)n1 [compound 551, 1-cyclopentyl-N-[(2S)-4-(3,3-difluoropiperidin-1-yl)-1-(1H-1,2,3,4-tetrazol-5-yl)butan-2-yl]-5{2-(trifluoromethyl)phenyl]-1H-pyrazole-3-carboxamide] | Diastolic blood pressure, 2-5 h mean change from baseline ([2]; 7.5 mg/kg oral gavage): −4.3 mmHg; MAP, 2-5 h mean change from baseline ([2]; 7.5 mg/kg oral gavage): −4.5 mmHg; Systolic blood pressure, 2-5 h mean change from baseline ([2]; 7.5 mg/kg oral gavage): −6.6 mmHg; Diastolic blood pressure, 2-5 h mean change from baseline ([2]; 15 mg/kg oral gavage): −7.3 mmHg; MAP, 2-5 h mean change from baseline ([2]; 15 mg/kg oral gavage): −8.5 mmHg; Systolic blood pressure, 2-5 h mean change from baseline ([2]; 15 mg/kg oral gavage): −9.6 mmHg; Diastolic blood pressure, 2-5 h mean change from baseline ([2]; 30 mg/kg oral gavage): −8.4 mmHg; MAP, 2-5 h mean change from baseline ([2]; 30 mg/kg oral gavage): −9.8 mmHg; Systolic blood pressure, 2-5 h mean change from baseline ([2]; 30 mg/kg oral gavage): −11.3 mmHg; Effect on blood pressure (in words) [2]: dose-dependent, mild sustained decrease in blood pressure
2 | 35 nM | Cl.O=C(O)C[C@H](CCN1CCCC(F)(F)C1)NC(=O)c1cc(-c2ccccc2C(F)(F)F)n(C2CCCC2)n1 [compound 423, (3S)-3-({1-cyclopentyl-5-[2-(trifluoromethyl)phenyl]-1H-pyrazol-3-yl}formamido)-5-(3,3-difluoropiperidin-1-yl)pentanoic acid] | Diastolic blood pressure, 2-5 h mean change from baseline ([2]; 7.5 mg/kg oral gavage): −9.9 mmHg; MAP, 2-5 h mean change from baseline ([2]; 7.5 mg/kg oral gavage): −10.0 mmHg; Systolic blood pressure, 2-5 h mean change from baseline ([2]; 7.5 mg/kg oral gavage): −13.0 mmHg; Diastolic blood pressure, 2-5 h mean change from baseline ([2]; 15 mg/kg oral gavage): −7.3 mmHg; MAP, 2-5 h mean change from baseline ([2]; 15 mg/kg oral gavage): −8.4 mmHg; Systolic blood pressure, 2-5 h mean change from baseline ([2]; 15 mg/kg oral gavage): −9.8 mmHg; Diastolic blood pressure, 2-5 h mean change from baseline ([2]; 30 mg/kg oral gavage): −8.3 mmHg; MAP, 2-5 h mean change from baseline ([2]; 30 mg/kg oral gavage): −9.3 mmHg; Systolic blood pressure, 2-5 h mean change from baseline ([2]; 30 mg/kg oral gavage): −10.7 mmHg; Effect on blood pressure (in words) [2]: mild sustained decrease in blood pressure
3 | > 10000 nM | O=C(C[C@H](CCN1CCCCC1)NC(=O)c1cc(-c2ccccc2)n(C2CCCC2)n1)NC1CCC1 [compound 365, (3S)-N-cyclobutyl-3-[(1-cyclopentyl-5-phenyl-1H-pyrazol-3-yl)formamido]-5-(piperidin-1-yl)pentanamide] | –
4 | 151 nM | O=C(O)C[C@H](CCN1CCCC(F)(F)C1)NC(=O)c1cc(-c2ccccc2Cl)n(C2CCCC2)n1 [compound 433, (3S)-3-{[5-(2-chlorophenyl)-1-cyclopentyl-1H-pyrazol-3-yl]formamido}-5-(3,3-difluoropiperidin-1-yl)pentanoic acid] | –
5 | 79 nM | CC(F)(F)c1ccccc1-c1cc(C(=O)N[C@@H](CCN2CCC[C@@H](F)C2)CC(=O)O)nn1C1CCCC1 [compound 593, (3S)-3-({1-cyclopentyl-5-[2-(1,1-difluoroethyl)phenyl]-1H-pyrazol-3-yl}formamido)-5-[(3R)-3-fluoropiperidin-1-yl]pentanoic acid] | –
6 | 90 nM | COc1cccc(F)c1-c1cc(C(=O)N[C@@H](CCN2CCCCC2)CC(=O)NC2CCC2)nn1C1CCCC1 [compound 372, (3S)-N-cyclobutyl-3-{[1-cyclopentyl-5-(2-fluoro-6-methoxyphenyl)-1H-pyrazol-3-yl]formamido}-5-(piperidin-1-yl)pentanamide] | –
7 | > 10000 nM | CCN(C(=O)c1cc(-c2c(OCC(F)(F)F)cccc2OCC(F)(F)F)n(C2CCCC2)n1)[C@@H](CCN1CCCCC1)CC(=O)NC1CCC1 [compound 342, (3S)-3-(1-{5-[2,6-bis(2,2,2-trifluoroethoxy)phenyl]-1-cyclopentyl-1H-pyrazol-3-yl}-N-ethylformamido)-N-cyclobutyl-5-(piperidin-1-yl)pentanamide] | –
8 | 475 nM | O=C(O)C[C@H](CC(=O)N1CCCCC1)NC(=O)c1cc(-c2ccccc2C(F)(F)F)n(C2CCCC2)n1 [compound 508, (3S)-3-({1-cyclopentyl-5-[2-(trifluoromethyl)phenyl]-1H-pyrazol-3-yl}formamido)-5-oxo-5-(piperidin-1-yl)pentanoic acid] | –
9 | 1170 nM | CN(C(=O)[C@@H](CC(=O)O)NC(=O)c1cc(-c2ccccc2C(F)(F)F)n(C2CCCC2)n1)C1CCCCC1 [compound 558, (3R)-3-[cyclohexyl(methyl)carbamoyl]-3-({1-cyclopentyl-5-[2-(trifluoromethyl)phenyl]-1H-pyrazol-3-yl}formamido)propanoic acid] | –
10 | 32 nM | CN(CC[C@@H](CC(=O)NC1CCC1)NC(=O)c1cc(-c2ccccc2C(F)(F)F)n(C2CCCC2)n1)C1CCC1 [compound 506, (3S)-N-cyclobutyl-5-[cyclobutyl(methyl)amino]-3-({1-cyclopentyl-5-[2-(trifluoromethyl)phenyl]-1H-pyrazol-3-yl}formamido)pentanamide] | –
11 | > 10000 nM | COc1cccc(OC)c1-c1cc(C(=O)N[C@H](CC(=O)O)c2ccccc2)nn1CC(C)C [compound 300, (3R)-3-{[5-(2,6-dimethoxyphenyl)-1-(2-methylpropyl)-1H-pyrazol-3-yl]formamido}-3-phenylpropanoic acid] | –
12 | 931 nM | O=C(O)C[C@H](CCN1CCOCC1)NC(=O)c1cc(-c2ccccc2C(F)(F)F)n(C2CCCC2)n1 [compound 486, (3S)-3-({1-cyclopentyl-5-[2-(trifluoromethyl)phenyl]-1H-pyrazol-3-yl}formamido)-5-(morpholin-4-yl)pentanoic acid] | –
13 | 26 nM | Cc1cnn(CC[C@@H](CC(=O)NC2CCC2)NC(=O)c2cc(-c3ccccc3C(F)(F)F)n(C3CCCC3)n2)c1 [compound 501, (3S)-N-cyclobutyl-3-({1-cyclopentyl-5-[2-(trifluoromethyl)phenyl]-1H-pyrazol-3-yl}formamido)-5-(4-methyl-1H-pyrazol-1-yl)pentanamide] | –
14 | 1.96 nM | N#CC1CCN(CC[C@@H](CC(=O)NC2CCC2)NC(=O)c2cc(-c3ccccc3C(F)(F)F)n(C3CCCC3)n2)C1 (stereo partly drawn) [compound 481, (3S)-5-(3-cyanopyrrolidin-1-yl)-N-cyclobutyl-3-({1-cyclopentyl-5-[2(trifluoromethyl)phenyl]-1H-pyrazol-3-yl}formamido)pentanamide] | –
15 | 388 nM | O=C(O)C[C@H](CCN1CC(F)(F)C1)NC(=O)c1cc(-c2ccccc2C(F)(F)F)n(C2CCCC2)n1 [compound 534, (3S)-3-({1-cyclopentyl-5-[2-(trifluoromethyl)phenyl]-1H-pyrazol-3-yl}formamido)-5-(3,3-difluoroazetidin-1-yl)pentanoic acid] | –
16 | 243 nM | O=C(N[C@@H](CCN1CCCC(F)(F)C1)Cc1nnc(C(F)(F)F)[nH]1)c1cc(-c2ccccc2Cl)n(C2CCCC2)n1 [compound 459] | –
17 | 47 nM | O=C(C[C@H](CC(=O)N1CCCC(F)(F)C1)NC(=O)c1cc(-c2ccccc2C(F)(F)F)n(C2CCCC2)n1)NC1CCC1 [compound 515, (3R)-N-cyclobutyl-3-({1-cyclopentyl-5-[2-(trifluoromethyl)phenyl]-1H-pyrazol-3-yl}formamido)-5-(3,3-difluoropiperidin-1-yl)-5-oxopentanamide] | –
18 | 261 nM | CC1(C)CCCCN1CC[C@@H](CC(=O)NC1CCC1)NC(=O)c1cc(-c2ccccc2C(F)(F)F)n(C2CCCC2)n1 [compound 517, (3S)-N-cyclobutyl-3-({1-cyclopentyl-5-[2-(trifluoromethyl)phenyl]-1H-pyrazol-3-yl}formamido)-5-(2,2-dimethylpiperidin-1-yl)pentanamide] | –
19 | 44 nM | CC(F)(F)c1ccccc1-c1cc(C(=O)N[C@@H](CCN2C[C@H](F)[C@@H](F)C2)CC(=O)O)nn1C1CCCC1 (stereo in doubt) [compound 594, (3S)-3-({1-cyclopentyl-5-[2-(1,1-difluoroethyl)phenyl]-1H-pyrazol-3-yl}formamido)-5-[trans-3,4-difluoropyrrolidin-1-yl]pentanoic acid] | –
20 | 171 nM | CC(F)(F)c1ccccc1-c1cc(C(=O)N[C@@H](CCN2CC(F)(F)C2)CC(=O)O)nn1C1CCCC1 [compound 589] | –
21 | – | O=C(C[C@H](CCN1CCOCC1)NC(=O)c1cc(-c2ccccc2C(F)(F)F)n(C2CCCC2)n1)NC1CCC1 [compound 491, (3S)-N-cyclobutyl-3-({1-cyclopentyl-5-[2-(trifluoromethyl)phenyl]-1H-pyrazol-3-yl}formamido)-5-(morpholin-4-yl)pentanamide] | EC50 ([1]; EC50 (nM) Ave): 68 nM
22 | 100 nM | O=C(C[C@H](CCN1CC2CCC1CC2)NC(=O)c1cc(-c2ccccc2C(F)(F)F)n(C2CCCC2)n1)NC1CCC1 [compound 521] | –
23 | 67 nM | C[C@@H](C[C@@H](CC(=O)O)NC(=O)c1cc(-c2ccccc2C(C)(F)F)n(C2CCCC2)n1)N1CCC(F)(F)C1 [compound 600, (3S,5S)-3-({1-cyclopentyl-5-[2-(1,1-difluoroethyl)phenyl]-1H-pyrazol-3-yl}formamido)-5-(3,3-difluoropyrrolidin-1-yl)hexanoic acid] | –
